Measured values published in paper PMC11855827, “High-Throughput Screening of Five Compound Libraries for Anthelmintic Activity and Toxicity Leads to the Discovery of Two Flavonoid Compounds” (International Journal of Molecular Sciences, 2025).
Read-outs that look alike come from different tables or passages of the source.

Tested on: C. elegans
Assay: microbe, parasite or virus in culture
Settings: Caenorhabditis elegans
[1] = 0 h, read-out: Percentage of motility inhibition 0 h, Table S2, C. elegans SS assay, 110 μM, 0 h, averages of 4 data points
[2] = 24 h, read-out: Percentage of motility inhibition 24 h, Table S2, C. elegans SS assay, 110 μM, 24 h, averages of 4 data points
[3] = 0 h, read-out: Percentage of motility inhibition 0 h
[4] = 24 h, read-out: Percentage of motility inhibition 24 h

Structure (SMILES)	inhibition at 110 µM [1]	inhibition at 110 µM [2]	other results
C=C[C@]12CN(C)[C@@H]3[C@H]4CO[C@H](C[C@H]41)[C@]1(C(=O)Nc4ccccc41)[C@@H]32 [Gelsemi ne]	0%	0%	–
O=C1C[C@@H](c2ccc(O[C@@H]3O[C@H](CO)[C@@H](O)[C@H](O)[C@H]3O)cc2)Oc2cc(O)ccc21 [Liquiriti n]	45%	14%	–
O=C1Nc2ccc(Cl)cc2[C@@](C#CC2CC2)(C(F)(F)F)O1 [Efavirenz]	29%	29%	–
CC(C)(O)[C@@H]1[C@H]2OC(=O)[C@@H]1[C@]1(O)C[C@H]3O[C@]34C(=O)O[C@H]2[C@]14C [Picrotin]	0%	0%	–
Cc1ccc2c(Br)cc(Br)c(OC(=O)c3ccccc3)c2n1 [Broxaldine]	26%	0%	–
Clc1ccc(C(Cn2ccnc2)OCc2ccsc2Cl)c(Cl)c1 (stereo not drawn) [Tioconazole]	30%	43%	–
C[N+](C)(C)CCOP(=O)(O)OP(=O)([O-])OC[C@H]1O[C@@H](n2ccc(N)nc2=O)[C@H](O)[C@@H]1O [Citicoline]	0%	0%	–
COc1ccc2c3c1O[C@H]1C[C@@H](O)CC[C@]31CCN(C)C2 [Lycoramine]	0%	0%	–
C=C(C)[C@@H]1CC[C@]2(C)CC[C@]3(C)[C@H](CC[C@@H]4[C@@]5(C)CC[C@H](O)C(C)(C)[C@@H]5CC[C@]43C)[C@@H]12 [Lupeol]	0%	0%	–
CC(C)=CCC[C@](C)(O[C@@H]1O[C@H](CO[C@@H]2OC[C@H](O)[C@H](O)[C@H]2O)[C@@H](O)[C@H](O)[C@H]1O)[C@H]1CC[C@]2(C)[C@@H]1[C@H](O)C[C@@H]1[C@@]3(C)CC[C@H](O)C(C)(C)[C@@H]3[C@@H](O)C[C@]12C [Ginsenoside F3]	2%	34%	–
NCCS(=O)(=O)O [Taurine]	8%	0%	–
CC(=O)O[C@H]1C[C@H](O[C@H]2[C@@H](O)C[C@H](O[C@H]3[C@@H](O)C[C@H](O[C@H]4CC[C@@]5(C)[C@H](CC[C@@H]6[C@@H]5C[C@@H](O)[C@]5(C)[C@@H](C7=CC(=O)OC7)CC[C@]65O)C4)O[C@@H]3C)O[C@@H]2C)O[C@H](C)[C@H]1O[C@@H]1O[C@H](CO)[C@@H](O)[C@H](O)[C@H]1O [Lanatoside C]	0%	2%	–
Nc1nc(NC2CC2)c2ncn([C@H]3C=C[C@@H](CO)C3)c2n1 [Abacavir]	3%	2%	–
CC[C@@H]1[C@H]2CCCCN3[C@H]2[C@@H](C[C@H]3[C@@H]2C[C@H](C)C(=O)O2)[C@H]2[C@@H]1OC(=O)[C@H]2C [Neotuberostemonine]	0%	9%	–
COc1c(O)cc(O)c2c(=O)cc(-c3ccccc3)oc12 [Wogonin]	–	–	inhibition at 110 µM [3]: 23%; inhibition at 110 µM [4]: 5%
CN1CCCN=C1/C=C/c1cccs1 [Pyrantel pamoate, reference compound]	–	–	inhibition at 110 µM (0 h, read-out: Inhibition (%) 110 μM (0 h), C. elegans L4 motility, 110 μM, 0 h, mean ± SD of four experiments): 94%; inhibition at 110 µM (24 h, read-out: Inhibition (%) 110 μM (24 h), C. elegans L4 motility, 110 μM, 24 h, mean ± SD of four experiments): 18 ± 18%
CC(C)(C)CC(C)(C)c1ccc(O)c(Cc2ccc(Cl)cc2Cl)c1 [Clofoctol]	37%	44%	–
C=C[C@@]12CN(C)[C@H]3C[C@]14C(=Nc1ccccc14)[C@H]1C[C@@H]2[C@@H]3CO1 [Koumine]	16%	18%	–
CC[C@@]1(O)C(=O)OCc2c1cc1n(c2=O)Cc2cc3c([N+](=O)[O-])cccc3nc2-1 [Rubitecan]	5%	0%	–
C=C(CC[C@@H](C(=O)O)[C@H]1[C@H](O)C[C@@]2(C)C3=C(CC[C@]12C)[C@@]1(C)CC[C@H](OC(C)=O)C(C)(C)[C@@H]1CC3)C(C)C [Pachymic acid]	45%	21%	–
COc1ccc([C@@H](O)CNC(=O)/C=C/c2ccccc2)cc1 (racemic) [Aegeline]	4%	6%	–
CC(C)CNC(=O)/C=C/C=C/c1ccc2c(c1)OCO2 [Piperlonguminine]	34%	22%	–
CC(C)[C@@H]1CC[C@@H](C)CC1=O [Menthone]	17%	17%	–
CC(C)=CCC[C@](C)(O[C@@H]1O[C@H](CO[C@H]2O[C@H](CO)[C@@H](O)[C@@H]2O)[C@@H](O)[C@H](O)[C@H]1O)[C@H]1CC[C@]2(C)[C@@H]1[C@H](O)C[C@@H]1[C@@]3(C)CC[C@H](O)C(C)(C)[C@@H]3[C@@H](O)C[C@]12C [Ginsenoside F5]	43%	17%	–
CCC(=O)c1c(O)cc(O)cc1O [Flopropione]	40%	18%	–
COC(=O)[C@@]12OC[C@]34[C@H]([C@@H](O)[C@@H]1O)[C@@]1(C)CC(=O)C(O)=C(C)[C@@H]1C[C@H]3OC(=O)[C@H](OC(=O)CC(C)C)[C@@H]24 [Bruceine A]	–	–	inhibition at 110 µM [3]: 24%; inhibition at 110 µM [4]: 49%

Structure (SMILES)	inhibition at 110 µM [1]	inhibition at 110 µM [2]	other results
O=c1cc(-c2ccc(O)cc2)oc2cc(O)cc(O)c12 [Apigenin]	12%	3%	–
O=c1[nH]c2ccccc2o1 [2‐Benzoxazolinone]	24%	6%	–
CN(C(=O)CN(CCO)CC(=O)N(C)C(C)(C)Cc1ccccc1)C(C)(C)Cc1ccccc1 [Oxethazaine]	44%	25%	–
CCc1nn(CCO)c(CC)c1Oc1cc(C#N)cc(C#N)c1 [Lersivirine]	18%	8%	–
N[C@@H](Cc1c[nH]cn1)C(=O)O [L-Histidine]	23%	22%	–
COc1cccc(O)c1-c1cc(=O)c2c(O)c(OC)c(OC)c(OC)c2o1 [Skullcapflavone II]	–	–	inhibition at 110 µM [3]: 4%; inhibition at 110 µM [4]: 6%
C[C@@H](c1ncncc1F)[C@](O)(Cn1cncn1)c1ccc(F)cc1F [Voriconazole]	19%	0%	–
O=C(O)c1cn(C2CC2)c2cc(N3CCNCC3)c(F)cc2c1=O [Ciprofloxacin]	33%	2%	–
CC(C)=CCC[C@](C)(O[C@@H]1O[C@H](CO)[C@@H](O)[C@H](O)[C@H]1O)[C@H]1CC[C@]2(C)[C@@H]1[C@H](O)C[C@@H]1[C@@]3(C)CC[C@H](O[C@@H]4O[C@H](CO)[C@@H](O)[C@H](O)[C@H]4O[C@@H]4O[C@H](CO)[C@@H](O)[C@H](O)[C@H]4O)C(C)(C)[C@@H]3CC[C@]12C [Ginsenoside Rd]	4%	4%	–
COc1cc(O)c2c(c1)O[C@H](c1ccccc1)CC2=O [Pinostrobin]	–	–	inhibition at 110 µM [3]: 1%; inhibition at 110 µM [4]: 7%
CC1=CC(=O)C(C(C)C)CC1 (stereo not drawn) [Piperitone]	10%	11%	–
C/C(C=O)=C\CC[C@@H](C)[C@H]1CC[C@@]2(C)C3=CC[C@H]4C(C)(C)C(=O)CC[C@]4(C)C3=CC[C@]12C [Ganoderal A]	7%	25%	–
OC[C@H]1O[C@@H](O[C@H]2[C@H](O)[C@@H](O)C(O)O[C@@H]2CO)[C@H](O)[C@@H](O)[C@H]1O (mixture of isomers) [Lactose]	–	–	inhibition at 110 µM [3]: 54%; inhibition at 110 µM [4]: 10%
C=C(C)[C@@H]1CC[C@]2(C)CC[C@]3(C)[C@H](CC[C@@H]4[C@@]5(C)CCC(=O)C(C)(C)[C@@H]5CC[C@]43C)[C@@H]12 [Lupenone]	25%	17%	–
O=C(O)[C@H]1O[C@@H](Oc2c(O)cc(O)c3c(=O)c(O)c(-c4ccc(O)c(O)c4)oc23)[C@H](O)[C@@H](O)[C@@H]1O [Hibifolin]	6%	1%	–
COc1ccc(-c2cc(=O)c3c(O)c(OC)c(OC)cc3o2)cc1 [Salvigenin]	22%	3%	–
NCCCC[C@H](N)C(=O)O [L-Lysine]	–	–	inhibition at 110 µM [3]: 19%; inhibition at 110 µM [4]: 2%
CC[C@@H]([C@H](C)O)n1ncn(-c2ccc(N3CCN(c4ccc(OC[C@@H]5CO[C@@](Cn6cncn6)(c6ccc(F)cc6F)C5)cc4)CC3)cc2)c1=O [Posaconazole]	23%	0%	–
O=c1ccn([C@@H]2O[C@H](CO)[C@@H](O)[C@H]2O)c(=O)[nH]1 [Uridine]	0%	10%	–
C[C@@H]1O[C@@H](OC[C@H]2O[C@@H](Oc3cc(O)c4c(c3)O[C@H](c3ccc(O)c(O)c3)CC4=O)[C@H](O)[C@@H](O)[C@@H]2O)[C@H](O)[C@H](O)[C@H]1O [Eriocitrin]	54%	16%	–
CC(=O)O[C@]1(C(C)=O)CC[C@H]2[C@@H]3C[C@H](C)C4=CC(=O)CC[C@]4(C)[C@H]3CC[C@@]21C [Medroxyprogesterone acetate]	11%	6%	–
CC(C)=CCC[C@](C)(O[C@@H]1O[C@H](CO)[C@@H](O)[C@H](O)[C@H]1O)[C@H]1CC[C@]2(C)[C@@H]1[C@H](O)C[C@@H]1[C@@]3(C)CC[C@H](O)C(C)(C)[C@@H]3[C@@H](O)C[C@]12C [Ginsenoside F1]	10%	2%	–
C1CNCCN1 [Piperazine]	3%	0%	–
O=c1cc(-c2ccc(O)c(-c3c(O)cc(O)c4c(=O)cc(-c5ccc(O)cc5)oc34)c2)oc2cc(O)cc(O)c12 [Amentoflavone]	0%	0%	–
CC(C)=CCC[C@H](C(=O)O)[C@H]1CC[C@]2(C)C3=C(CC[C@@]12C)[C@@]1(C)CCC(=O)C(C)(C)[C@H]1CC3 [β-Elemonic acid]	23%	28%	–
